{
  "source": "patent EP0278501A2",
  "about": "“Nucleotide analogs, their production and use” (Takeda Chemical Industries, Ltd., priority 1987, dated 1988)",
  "key": {"[1]": {"test_system": "cyclic AMP phosphodiesterase originated from a cow brain", "experiment": "Reaction with cyclic AMP phosphodiesterase", "assay_type": "biochemical", "details": "enzyme originated from a cow brain"}, "[2]": {"test_system": "Herpes Simplex Virus Type 1, HF Strainn", "experiment": "Inhibition of viral cytopathogenic effect in infected Vero cells", "assay_type": "cell-based", "text": "Inhibitory Effect of Antiviral Compounds against Herpes Simplex Virus Type 1, HF Strainn\nVero cells were infected with 100 TCIDso(50% tissue-culture infected doses) of viruses and cultured with various concentrations of the compounds."}, "Vero cells": {"test_system": "Vero cells", "experiment": "Cytotoxicity in non-infected control culture (visible disruption of normal cell morphology)", "assay_type": "cell-based", "details": "minimum concentration to cause a visible disruption of normal cell morphology; non-infected Vero control culture, three days; 4320 min"}, "[3]": {"experiment": "Cytotoxicity in non-infected control culture (visible disruption of normal cell morphology)", "assay_type": "cell-based", "details": "monkey, vero cells; minimum concentration to cause a visible disruption of normal cell morphology; non-infected Vero control culture, three days; read-out: Cytotoxicity^b)"}},
  "data": [
    {"compound": "2'-Deoxyaristeromycin-3',6'-cyclic phosphate [Example 1]", "values": [
      {"measurement": "conversion by cyclic AMP phosphodiesterase", "setting": "[1]", "value": "changed to 2'-deoxyaristeromycin-mono phosphate"}
    ]},
    {"compound": "Carbocyclic•2'-deoxyguanosine 6'-triphosphate", "values": [
      {"measurement": "ID50^a)", "setting": "[2]; concentration required to reduce the viral cytopathogenic effect by 50%, Vero cells infected with 100 TCID50, observed three days after the infection, 4320 min", "value": 0.4, "unit": "µg/mL"},
      {"measurement": "Cytotoxicity^b)", "setting": "Vero cells", "value": 50, "unit": "µg/mL"}
    ]},
    {"compound": "Nc1nc2c(ncn2[C@@H]2C[C@H](COP(=O)(O)O)[C@@H](O)C2)c(=O)[nH]1", "note": "[Carbocyclic•2'-deoxyguanosine-6'-monophosphate]", "values": [
      {"measurement": "EC50", "setting": "[2]; Human alphaherpesvirus 1, 72 h; concentration required to reduce the viral cytopathogenic effect by 50%; Vero cells infected with 100 TCID50; observed three days after the infection; read-out: ID50^a)", "value": 0.2, "unit": "µg/mL"},
      {"measurement": "MCC at 72 h", "setting": "[3]", "value": 50, "unit": "µg/mL"}
    ]}
  ]
}
